Measurements reported in patent US12728119B2, “Pharmaceutical composition for preventing or treating cancer comprising 3-ketoacyl CoA thiolase inhibitor and carnitine acylcarnitine carrier inhibitor” (NATIONAL CANCER CENTER, priority 2020, dated 2026).
“And” between values parts separate entries of the source, which are not always exact repeats. Equal entries are not always repeated.

Experiments:
Assay type in all cases: cell-based
[1] = test system: cancer cells; test: SRB analysis 3, triple combination, summary over cancer panels
Description: (§1) Through SRB analysis (n=3), the effect of triple combination treatment of a CAC inhibitor (KN510: omeprazole), ACAA inhibitor (KN713: trimetazidine) and other anticancer drug on cell growth in the cancer cells was analyzed. (see Table 11).
(§2) The SRB assay was performed as follows: each cell line (100 μl) was seeded into 96-well microtiter plates at densities ranging from 5,000 to 40,000 cells/well depending on the doubling time of each cell line. After 24 hours, drug (100 μl per well) was added to each well and the culture was incubated at 37° C. for 48 hours. Cells were then fixed in 50% TCA (50 μl per well) and plates were incubated at 4° C. for a minimum of 1 hour or a maximum of 3 hours. After that, the liquid was removed from the plate, then rinsed 5 times with water and dried for approximately 12-24 hours at room temperature (RT). After the fixed cells were stained with 0.4% SRB (100 μl per well) for 10 minutes at room temperature, the plates were washed 3 times with 1% glacial acetic acid and dried at room temperature for about 12-24 hours. SRB staining was dissolved in 10 mM Trizma base and absorbance was read at 515 nm. The effect of the drug was expressed as GI50 (50% growth inhibition), TGI (total growth inhibition) or LC50 (lethal concentration). GI50 is the maximum concentration at the moment of 50% inhibition of cell proliferation and IC50 is the concentration of the drug that inhibits the enzyme activity in vitro by 50% in this study.

[2] = test system: Huh-7 liver cancer cell line; test: SRB analysis 3; settings: 48 hours
Description: as §1, §2

[3] = test system: UACC62 melanoma cell line; test: SRB analysis 3; settings: 48 hours
Description: as §1, §2

[4] = test system: DU145 prostate cancer cell line; test: SRB analysis 3; settings: 48 hours
Description: as §1, §2

[5] = test system: COLO-205 colon cancer cell line; test: SRB analysis 3; settings: 48 hours
Description: as §1, §2

[6] = test system: Caki-1 renal cancer cell line; test: SRB analysis 3; settings: 48 hours
Description: as §1, §2

[7] = test system: H1975 non-small cell lung cancer (NSCLC) cell line; test: SRB analysis 3; settings: 48 hours
Description: as §1, §2

[8] = test system: AGS gastric cancer cell line; test: SRB analysis 3; settings: 48 hours
Description: as §1, §2

[9] = test system: OVCAR-8 ovarian cancer cell line; test: SRB analysis 3; settings: 48 hours
Description: as §1, §2

[10] = test system: ACHN renal cancer cell line; test: SRB analysis 3; settings: 48 hours
Description: as §1, §2

[11] = test system: MIA PaCa-2 pancreatic cancer (PDAC) cell line; test: SRB analysis 3; settings: 48 hours
Description: as §1, §2

[12] = test system: A375 melanoma cell line; test: SRB analysis 3; settings: 48 hours
Description: as §1, §2

[13] = test system: PC-3 prostate cancer cell line; test: SRB analysis 3; settings: 48 hours
Description: as §1, §2

[14] = test system: MKN45 gastric cancer cell line; test: SRB analysis 3; settings: 48 hours
Description: as §1, §2

[15] = test system: A549 non-small cell lung cancer (NSCLC) cell line; test: SRB analysis 3; settings: 48 hours
Description: as §1, §2

[16] = test system: MDA-MB-231 breast cancer cell line; test: SRB analysis 3; settings: 48 hours
Description: as §1, §2

[17] = test system: MCF7 breast cancer cell line; test: SRB analysis 3; settings: 48 hours
Description: as §1, §2

[18] = test system: SK-OV-3 ovarian cancer cell line; test: SRB analysis 3; settings: 48 hours
Description: as §1, §2

[19] = test system: HCT-116 colon cancer cell line; test: SRB analysis 3; settings: 48 hours
Description: as §1, §2

[20] = test system: SK-hep-1 liver cancer cell line; test: SRB analysis 3; settings: 48 hours
Description: as §1, §2

[21] = test system: AsPC-1 pancreatic cancer (PDAC) cell line; test: SRB analysis 3; settings: 48 hours
Description: as §1, §2

[22] = test system: U87MG glioblastoma (GBM) cell line; test: SRB analysis 3; settings: Cisplatin 1 μM, 48 hours
Description: as §2, with “Through SRB analysis (n=3), the effect of triple combination treatment of a CAC inhibitor ([…] inhibitor (KN713: trimetazidine) and other anticancer drug on cell growth in the cancer cells was analyzed. (see Table 11). The” for “The”, “nm.” for “nm. The effect of the drug was expressed as GI50 (50% growth inhibition), TGI (total growth inhibition) or LC50 (lethal concentration). GI50 is the maximum concentration at the moment of 50% inhibition of cell proliferation and IC50 is the concentration of the drug that inhibits the enzyme activity in vitro by 50% in this study.”

[23] = test system: T87G glioblastoma (GBM) cell line; test: SRB analysis 3; settings: Cisplatin 1 μM, 48 hours
Description: as §2, with “Through SRB analysis (n=3), the effect of triple combination treatment of a CAC inhibitor ([…] inhibitor (KN713: trimetazidine) and other anticancer drug on cell growth in the cancer cells was analyzed. (see Table 11). The” for “The”, “nm.” for “nm. The effect of the drug was expressed as GI50 (50% growth inhibition), TGI (total growth inhibition) or LC50 (lethal concentration). GI50 is the maximum concentration at the moment of 50% inhibition of cell proliferation and IC50 is the concentration of the drug that inhibits the enzyme activity in vitro by 50% in this study.”

[24] = test system: AsPC-1 pancreatic cancer cells; test: SRB analysis 2; settings: KN715 200 μM, 48 hours
Description: (§3) The SRB assay was performed as follows: each cell line (100 μl) was seeded into 96-well microtiter plates at densities ranging from 5,000 to 20,000 cells/well depending on the doubling time of each cell line. After cell seeding, microtiter plates were incubated for 24 h before addition of experimental drug. Drugs were prepared at the indicated concentrations and 100 μl was added to each well; The plates were then incubated in a CO2 incubator. Then, cold TCA was added to terminate the assay. Cells were fixed in situ by gentle addition of 50 μl of cold 50% (w/v) TCA (final concentration: 10% TCA) and incubated at 4° C. for 60 min. The supernatant was discarded and the plate was washed 5 times with tap water and then air dried. A solution (100 μl) of 0.4% (w/v) SRB (Sulforhodamine B) in 1% acetic acid was added to each well, and the plate was left at room temperature for 10 minutes. After staining, the plates were air dried after washing 5 times with 1% acetic acid to remove unbound dye. The bound dye was then solubilized with 10 mM trizma base and the absorbance was recorded at 515 nm using an automated plate reader.

[25] = test system: BxPC-3 pancreatic cancer cells; test: SRB analysis 2; settings: KN715 200 μM, 48 hours
Description: as §3

[26] = test system: MIA PaCa2 pancreatic cancer cells; test: SRB analysis 2; settings: MIA PaCa-2; KN715 200 μM; 48 hours
Description: as §3

[27] = test system: SNU-324 pancreatic cancer cells; test: SRB analysis 2; settings: SNU324; KN715 200 μM; 48 hours
Description: as §3

[28] = test system: SU.86.86 pancreatic cancer cells; test: SRB analysis 2; settings: KN715 200 μM, 48 hours
Description: as §3

[29] = Breast Cancer, BT-549, MDA MB 231
[30] = Ovarian Cancer, SK-OV-3, OVCAR-3
[31] = Renal cell carcinoma, ACHN, CAKI-1

Structure (SMILES): O=c1[nH]cc(F)c(=O)[nH]1 [5-FU]
- Positive/Negative (triple combination of KN510, KN713 and the listed anticancer drug) [1, 29]: negative
- Positive/Negative (triple combination of KN510, KN713 and the listed anticancer drug) ([1]; Colon Cancer, HT-29, COLO-205): Positive
- Positive/Negative (triple combination of KN510, KN713 and the listed anticancer drug) ([1]; GBM, U87MG, T87G): Positive
- Positive/Negative (triple combination of KN510, KN713 and the listed anticancer drug) ([1]; Liver Cancer, SNU-449, Huh-7): Positive
- Positive/Negative (triple combination of KN510, KN713 and the listed anticancer drug) ([1]; NSCLC, A549, H522): Positive
- Positive/Negative (triple combination of KN510, KN713 and the listed anticancer drug) [1, 30]: negative
- Positive/Negative (triple combination of KN510, KN713 and the listed anticancer drug) ([1]; PDAC, MIA PaCa-2, PANC-1): Positive
- Positive/Negative (triple combination of KN510, KN713 and the listed anticancer drug) ([1]; Prostate Cancer, PC-3, DU-145): Positive
- Positive/Negative (triple combination of KN510, KN713 and the listed anticancer drug) [1, 31]: Positive
- Positive/Negative (triple combination of KN510, KN713 and the listed anticancer drug) ([1]; Stomach Cancer, MKN-28, AGS): Positive
- Positive/Negative (triple combination of KN510, KN713 and the listed anticancer drug) ([1]; melanoma, UACC62, A375): negative
- cell growth (Control = 100) ([2]; 5-FU 5 μM): 34.9345
- cell growth (Control = 100) ([3]; 5-FU 5 μM): 59.14
- cell growth (Control = 100) ([4]; 5-FU 5 μM): 59.63
- cell growth (Control = 100) ([5]; 5-FU 5 μM): −4.957
- cell growth (Control = 100) ([6]; 5-FU 5 μM): 59.41
- cell growth (Control = 100) ([7]; 5-FU 5 μM): 58.333
- cell growth (Control = 100) ([8]; 5-FU 5 μM): 39.84
- cell growth (Control = 100) ([9]; 5-FU 5 μM): 77.83
- cell growth (Control = 100) ([10]; 5-FU 5 μM): 26.38
- cell growth (Control = 100) ([11]; 5-FU 10 μM): 36.7557
- cell growth (Control = 100) ([12]; 5-FU 5 μM): 95.91
- cell growth (Control = 100) ([13]; 5-FU 5 μM): 51.6552
- cell growth (Control = 100) ([14]; MKN45, 5-FU 5 μM): 51.03
- cell growth (Control = 100) ([15]; 5-FU 5 μM): 28.5
- cell growth (Control = 100) ([16]; 5-FU 5 μM): 73.95
- cell growth (Control = 100) ([17]; 5-FU 5 μM): 11.29
- cell growth (Control = 100) ([18]; 5-FU 5 μM): 80.76
- cell growth (Control = 100) ([19]; 5-FU 5 μM): 14.62
- cell growth (Control = 100) ([20]; 5-FU 5 μM): 149.7317
- cell growth (Control = 100) ([21]; 5-FU 10 μM): 64.54

Structure (SMILES): N.N.[Cl][Pt][Cl] [Cisplatin]
- Positive/Negative (triple combination of KN510, KN713 and the listed anticancer drug) [1, 29]: negative
- Positive/Negative (triple combination of KN510, KN713 and the listed anticancer drug) ([1]; Colon Cancer, HT-29, COLO-205): negative
- Positive/Negative (triple combination of KN510, KN713 and the listed anticancer drug) ([1]; GBM, U87MG, T87G): negative
- Positive/Negative (triple combination of KN510, KN713 and the listed anticancer drug) ([1]; Liver Cancer, SNU-449, Huh-7): negative
- Positive/Negative (triple combination of KN510, KN713 and the listed anticancer drug) ([1]; NSCLC, A549, H522): negative
- Positive/Negative (triple combination of KN510, KN713 and the listed anticancer drug) [1, 30]: negative
- Positive/Negative (triple combination of KN510, KN713 and the listed anticancer drug) ([1]; PDAC, MIA PaCa-2, PANC-1): negative
- Positive/Negative (triple combination of KN510, KN713 and the listed anticancer drug) ([1]; Prostate Cancer, PC-3, DU-145): negative
- Positive/Negative (triple combination of KN510, KN713 and the listed anticancer drug) [1, 31]: negative
- Positive/Negative (triple combination of KN510, KN713 and the listed anticancer drug) ([1]; Stomach Cancer, MKN-28, AGS): negative
- Positive/Negative (triple combination of KN510, KN713 and the listed anticancer drug) ([1]; melanoma, UACC62, A375): negative
- cell growth (Control = 100) [22]: 87.30
- cell growth (Control = 100) [23]: 120.49
- cell growth (Control = 100) ([2]; Cisplatin 1 μM): 66.69
- cell growth (Control = 100) ([3]; Cisplatin 1 μM): 91.68
- cell growth (Control = 100) ([4]; Cisplatin 1 μM): 60.85
- cell growth (Control = 100) ([5]; Cisplatin 1 μM): 83.44
- cell growth (Control = 100) ([6]; Cisplatin 1 μM): 113.4691
- cell growth (Control = 100) ([7]; Cisplatin 1 μM): 97.49
- cell growth (Control = 100) ([8]; Cisplatin 1 μM): 74.02
- cell growth (Control = 100) ([9]; Cisplatin 1 μM): 84.76
- cell growth (Control = 100) ([10]; Cisplatin 1 μM): 118.1147
- cell growth (Control = 100) ([11]; Cisplatin 1 μM): 95.91
- cell growth (Control = 100) ([12]; Cisplatin 1 μM): 85.06
- cell growth (Control = 100) ([13]; Cisplatin 1 μM): 67.15
- cell growth (Control = 100) ([14]; MKN-45, Cisplatin 1 μM): 96.28
- cell growth (Control = 100) ([15]; Cisplatin 1 μM): 75.07
- cell growth (Control = 100) ([16]; Cisplatin 1 μM): 93.91
- cell growth (Control = 100) ([17]; Cisplatin 1 μM): 70.82
- cell growth (Control = 100) ([18]; Cisplatin 1 μM): 75.0979
- cell growth (Control = 100) ([19]; Cisplatin 1 μM): 100.5484
- cell growth (Control = 100) ([20]; Cisplatin 1 μM): 136.3148
- cell growth (Control = 100) ([21]; Cisplatin 1 μM): 94.84

Structure (SMILES): COc1ccccc1OCC(O)CN1CCN(CC(=O)Nc2c(C)cccc2C)CC1 (centres unmarked) [KN715, ranolazine]
- degree of cell growth based on the control (100%) [24]: 86.53% and 57.91% and 63.15%
- degree of cell growth based on the control (100%) [25]: 46.24% and 45.76% and 59.04%
- degree of cell growth based on the control (100%) [26]: 87.91% and 65.15% and 73.29%
- degree of cell growth based on the control (100%) [27]: 23.58% and 23.63% and 27.45%
- degree of cell growth based on the control (100%) [28]: 90.37% and 63.92% and 73.38%

Structure (SMILES): CCCS(=O)(=O)Nc1ccc(F)c(C(=O)c2c[nH]c3ncc(-c4ccc(Cl)cc4)cc23)c1F [Vermutafenib]
- cell growth (Control = 100) ([3]; Vermutafenib 0.5 μM): 2.10
- cell growth (Control = 100) ([12]; Vermutafenib 0.5 μM): 7.77
